Earlier results as cited in patent US20230183218A1, “CONDENSED SUBSTITUTED HYDROPYRROLES AS ANTAGONISTS OF THE MUSCARINIC ACETYLCHOLINE RECEPTOR M4” (Vanderbilt University, priority 2020, published 2023).
Like-named read-outs stand apart in the source and are kept apart here.

Experiments:
[1] = tested on: haloperidol-induced catalepsy; settings: cited from earlier work
locomotor activity = settings: M4 knockout mice, but not the other four mAChR subtypes (M1-3,5); cited from earlier work

## CN1[C@@H]2C[C@@H](OC(=O)[C@H](CO)c3ccccc3)C[C@H]1[C@@H]1O[C@@H]12 [scopolamine]
[1]; M4KO mice
  reversal of haloperidol-induced catalepsy: ineffective in reducing catalepsy
[1]; WT mice
  reversal of haloperidol-induced catalepsy: completely reversed
Locomotor activity
  locomotor-activating effects: dramatically reduced
